Target: T1, mutant CFTR (Homo sapiens, UniProt P13569, DEL508-508)
T1 construct: expressed in transfected cells
Experiment: Fluorescence (HS-YFP) assay for CFTR activity, corrector assay
Format: cell-based
Conditions: CFBE41o- and FRT cells with stable expression of mutant CFTR, read-out: activity (EC50)

T1 sequence (P13569 with tags, fused parts or gaps DEL508-508): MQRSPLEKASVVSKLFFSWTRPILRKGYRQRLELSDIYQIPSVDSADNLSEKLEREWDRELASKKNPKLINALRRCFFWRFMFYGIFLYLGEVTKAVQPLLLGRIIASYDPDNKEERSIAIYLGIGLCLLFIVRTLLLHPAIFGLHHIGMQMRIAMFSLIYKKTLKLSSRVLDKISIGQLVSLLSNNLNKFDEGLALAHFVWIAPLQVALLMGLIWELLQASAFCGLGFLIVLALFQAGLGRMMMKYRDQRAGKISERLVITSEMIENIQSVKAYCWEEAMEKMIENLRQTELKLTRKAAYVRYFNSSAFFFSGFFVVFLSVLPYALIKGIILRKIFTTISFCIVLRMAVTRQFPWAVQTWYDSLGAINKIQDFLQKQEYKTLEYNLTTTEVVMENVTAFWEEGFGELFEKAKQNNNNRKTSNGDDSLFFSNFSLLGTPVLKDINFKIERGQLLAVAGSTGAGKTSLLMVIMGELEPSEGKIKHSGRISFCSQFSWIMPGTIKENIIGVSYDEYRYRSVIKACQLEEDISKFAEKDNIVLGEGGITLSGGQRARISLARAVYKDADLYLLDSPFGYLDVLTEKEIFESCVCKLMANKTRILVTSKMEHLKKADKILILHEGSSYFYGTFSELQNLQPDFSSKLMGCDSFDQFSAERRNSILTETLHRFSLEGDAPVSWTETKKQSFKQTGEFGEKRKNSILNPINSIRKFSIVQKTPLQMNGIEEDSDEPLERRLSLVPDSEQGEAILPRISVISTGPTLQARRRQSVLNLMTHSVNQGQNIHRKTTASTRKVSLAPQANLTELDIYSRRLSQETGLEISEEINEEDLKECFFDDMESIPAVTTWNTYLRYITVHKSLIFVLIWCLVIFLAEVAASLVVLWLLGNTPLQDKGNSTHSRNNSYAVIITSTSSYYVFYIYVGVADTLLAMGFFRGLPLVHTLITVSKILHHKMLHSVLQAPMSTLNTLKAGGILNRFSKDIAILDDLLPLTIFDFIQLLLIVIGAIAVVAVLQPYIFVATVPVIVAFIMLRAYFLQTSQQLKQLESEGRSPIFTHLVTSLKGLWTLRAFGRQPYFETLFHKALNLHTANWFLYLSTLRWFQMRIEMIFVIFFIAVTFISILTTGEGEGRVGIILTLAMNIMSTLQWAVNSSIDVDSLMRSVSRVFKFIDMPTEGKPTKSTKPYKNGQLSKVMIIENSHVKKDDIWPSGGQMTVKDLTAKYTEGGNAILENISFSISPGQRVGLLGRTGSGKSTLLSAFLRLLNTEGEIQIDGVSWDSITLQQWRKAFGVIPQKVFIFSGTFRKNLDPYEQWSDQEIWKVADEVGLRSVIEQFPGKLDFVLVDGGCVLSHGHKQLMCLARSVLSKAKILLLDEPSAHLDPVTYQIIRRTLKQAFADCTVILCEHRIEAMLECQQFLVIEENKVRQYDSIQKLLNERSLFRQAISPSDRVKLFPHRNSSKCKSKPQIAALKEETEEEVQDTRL

Compound: CN(C(=O)c1cccc(-n2nc(C(F)(F)F)c3c2C(Oc2cccc(C(=O)O)c2)CCC3)c1)c1ccc2c(c1)OC(F)(F)O2 (single isomer, unassigned) [Compound 188, (S) or (R)-3-[[1-[3-[(2,2-Difluoro-1,3-benzodioxol-5-yl)-methyl-carbamoyl]phenyl]-3-(trifluoromethyl)-4,5,6,7-tetrahydroindazol-7-yl]oxy]benzoic acid]
- EC50: < 1 µM

Compound: CN(C(=O)c1cccc(-n2nc(C(F)(F)F)c3c2C(Oc2cccc(C(=O)O)c2)CCC3)c1)c1ccc2c(c1)OC(F)(F)O2 (single isomer, unassigned) [Compound 190, (R) or (S)-3-[[1-[3-[(2,2-Difluoro-1,3-benzodioxol-5-yl)-methyl-carbamoyl]phenyl]-3-(trifluoromethyl)-4,5,6,7-tetrahydroindazol-7-yl]oxy]benzoic acid]
- EC50: < 1 µM

Compound: CN(C(=O)c1cccc(-n2nc(C(F)(F)F)c3c2C(Oc2ccc(C(=O)O)cn2)CCC3)c1)c1ccc2c(c1)OC(F)(F)O2 (single isomer, unassigned) [Compound 192, (S) or (R)-6-[[1-[3-[(2,2-Difluoro-1,3-benzodioxol-5-yl)-methyl-carbamoyl]phenyl]-3-(trifluoromethyl)-4,5,6,7-tetrahydroindazol-7-yl]oxy]pyridine-3-carboxylic acid]
- EC50: < 1 µM

Compound: CN(C(=O)c1cccc(-n2nc(C(F)(F)F)c3c2C(Oc2ccc(C(=O)O)cn2)CCC3)c1)c1ccc2c(c1)OC(F)(F)O2 (single isomer, unassigned) [Compound 194, (R) or (S)-6-[[1-[3-[(2,2-Difluoro-1,3-benzodioxol-5-yl)-methyl-carbamoyl]phenyl]-3-(trifluoromethyl)-4,5,6,7-tetrahydroindazol-7-yl]oxy]pyridine-3-carboxylic acid]
- EC50: < 1 µM

Compound: CN(C(=O)c1cccc(-n2nc(C(F)(F)F)c3c2C(Oc2cc(C(=O)O)ccn2)CCC3)c1)c1ccc2c(c1)OC(F)(F)O2 (single isomer, unassigned) [Compound 196, (S) or (R)-2-[[1-[3-[(2,2-Difluoro-1,3-benzodioxol-5-yl)-methyl-carbamoyl]phenyl]-3-(trifluoromethyl)-4,5,6,7-tetrahydroindazol-7-yl]oxy]pyridine-4-carboxylic acid]
- EC50: < 1 µM

Compound: CN(C(=O)c1cccc(-n2nc(C(F)(F)F)c3c2C(Oc2cc(C(=O)O)ccn2)CCC3)c1)c1ccc2c(c1)OC(F)(F)O2 (single isomer, unassigned) [Compound 198, (R) or (S)-2-[[1-[3-[(2,2-Difluoro-1,3-benzodioxol-5-yl)-methyl-carbamoyl]phenyl]-3-(trifluoromethyl)-4,5,6,7-tetrahydroindazol-7-yl]oxy]pyridine-4-carboxylic acid]
- EC50: < 1 µM

Compound: CN(C(=O)c1cccc(-n2nc(C(F)(F)F)c3c2C(Oc2ccc(C(=O)O)cc2)COC3)c1)c1ccc2c(c1)OC(F)(F)O2 (single isomer, unassigned) [Compound 205, (R) or (S)-4-[[1-[3-[(2,2-Difluoro-1,3-benzodioxol-5-yl)-methyl-carbamoyl]phenyl]-3-(trifluoromethyl)-6,7-dihydro-4H-pyrano[4,3-c]pyrazol-7-yl]oxy]benzoic acid]
- EC50: < 1 µM

Compound: CN(C(=O)c1cccc(-n2nc(C(F)(F)F)c3c2C(Oc2ccc(C(=O)O)cc2)COC3)c1)c1ccc2c(c1)OC(F)(F)O2 (single isomer, unassigned) [Compound 206, (S) or (R)-4-[[1-[3-[(2,2-Difluoro-1,3-benzodioxol-5-yl)-methyl-carbamoyl]phenyl]-3-(trifluoromethyl)-6,7-dihydro-4H-pyrano[4,3-c]pyrazol-7-yl]oxy]benzoic acid]
- EC50: < 1 µM

Compound: Cc1cc2ncc(N(C)C(=O)c3cccc(-n4nc(C(F)(F)F)c5c4[C@H](Oc4ccc(C(=O)O)cc4)CCC5)c3)cn2n1 (single isomer, unassigned) [Compound 217, (S) or (R)-4-[[1-[3-[Methyl-(2-methylpyrazolo[1,5-a]pyrimidin-6-yl)carbamoyl]phenyl]-3-(trifluoromethyl)-4,5,6,7-tetrahydroindazol-7-yl]oxy]benzoic acid]
- EC50: < 1 µM

Compound: Cc1cc2ncc(N(C)C(=O)c3cccc(-n4nc(C(F)(F)F)c5c4[C@@H](Oc4ccc(C(=O)O)cc4)CCC5)c3)cn2n1 (single isomer, unassigned) [Compound 218, (R) or (S)-4-[[1-[3-[Methyl-(2-methylpyrazolo[1,5-a]pyrimidin-6-yl)carbamoyl]phenyl]-3-(trifluoromethyl)-4,5,6,7-tetrahydroindazol-7-yl]oxy]benzoic acid]
- EC50: 1 to 2 µM

Compound: CN(C(=O)c1cccc(-n2nc(C(F)(F)F)c3c2C(Oc2cncc(C(=O)O)c2)CCC3)c1)c1ccc2c(c1)OC(F)(F)O2 (single isomer, unassigned) [Compound 271, (S) or (R)-5-[[1-[3-[(2,2-Difluoro-1,3-benzodioxol-5-yl)-methyl-carbamoyl]phenyl]-3-(trifluoromethyl)-4,5,6,7-tetrahydroindazol-7-yl]oxy]pyridine-3-carboxylic acid]
- EC50: < 1 µM

Compound: CN(C(=O)c1cccc(-n2nc(C(F)(F)F)c3c2C(Oc2cncc(C(=O)O)c2)CCC3)c1)c1ccc2c(c1)OC(F)(F)O2 (single isomer, unassigned) [Compound 272, (R) or (S)-5-[[1-[3-[(2,2-Difluoro-1,3-benzodioxol-5-yl)-methyl-carbamoyl]phenyl]-3-(trifluoromethyl)-4,5,6,7-tetrahydroindazol-7-yl]oxy]pyridine-3-carboxylic acid]
- EC50: 1 to 2 µM

Compound: CN(C(=O)c1cccc(-n2nc(C(F)(F)F)c3c2C(Oc2ccc(C(=O)O)cc2)CCC3)c1)c1cnc2c(c1)OCC2 (single isomer, unassigned) [Compound 275, (S) or (R)-4-[[1-[3-[2,3-Dihydrofuro[3,2-b]pyridin-6-yl(methyl)carbamoyl]phenyl]-3-(trifluoromethyl)-4,5,6,7-tetrahydroindazol-7-yl]oxy]benzoic acid]
- EC50: < 1 µM

Compound: CN(C(=O)c1cccc(-n2nc(C(F)(F)F)c3c2C(Oc2ccc(C(=O)O)cc2)CCC3)c1)c1cnc2c(c1)OCC2 (single isomer, unassigned) [Compound 276, (R) or (S)-4-[[1-[3-[2,3-Dihydrofuro[3,2-b]pyridin-6-yl(methyl)carbamoyl]phenyl]-3-(trifluoromethyl)-4,5,6,7-tetrahydroindazol-7-yl]oxy]benzoic acid]
- EC50: 1 to 2 µM

Compound: CN(C(=O)c1cccc(-n2nc(C(F)(F)F)c3c2C(Oc2ccc(C(=O)O)cn2)COC3)c1)c1ccc2c(c1)OC(F)(F)O2 (single isomer, unassigned) [Compound 277, (S) or (R)-6-[[1-[3-[(2,2-difluoro-1,3-benzodioxol-5-yl)-methyl-carbamoyl]phenyl]-3-(trifluoromethyl)-6,7-dihydro-4H-pyrano[4,3-c]pyrazol-7-yl]oxy]pyridine-3-carboxylic acid]
- EC50: < 1 µM

Compound: CN(C(=O)c1cccc(-n2nc(C(F)(F)F)c3c2C(Oc2ccc(C(=O)O)cn2)COC3)c1)c1ccc2c(c1)OC(F)(F)O2 (single isomer, unassigned) [Compound 278, (R) or (S)-6-[[1-[3-[(2,2-difluoro-1,3-benzodioxol-5-yl)-methyl-carbamoyl]phenyl]-3-(trifluoromethyl)-6,7-dihydro-4H-pyrano[4,3-c]pyrazol-7-yl]oxy]pyridine-3-carboxylic acid]
- EC50: < 1 µM

Compound: CN(C(=O)c1cccc(-n2nc(C(F)(F)F)c3c2C(Oc2ccc(C(=O)O)cc2)CCC3)c1)c1ccc2c(c1)OCC2 (single isomer, unassigned) [Compound 279, (S) or (R)-4-[[1-[3-[2,3-dihydrobenzofuran-6-yl(methyl)carbamoyl]phenyl]-3-(trifluoromethyl)-4,5,6,7-tetrahydroindazol-7-yl]oxy]benzoic acid]
- EC50: < 1 µM

Compound: CN(C(=O)c1cccc(-n2nc(C(F)(F)F)c3c2C(Oc2ccc(C(=O)O)cc2)CCC3)c1)c1ccc2c(c1)OCC2 (single isomer, unassigned) [Compound 280, (R) or (S)-4-[[(1-[3-[2,3-dihydrobenzofuran-6-yl(methyl)carbamoyl]phenyl]-3-(trifluoromethyl)-4,5,6,7-tetrahydroindazol-7-yl]oxy]benzoic acid]
- EC50: < 1 µM

Compound: CN(C(=O)c1cccc(-n2nc(C(F)(F)F)c3c2C(Oc2ccc(C(=O)O)cc2)COC3)c1)c1ccc2c(c1)OCC2 (single isomer, unassigned) [Compound 282, (R) or (S)-4-[[1-[3-[2,3-dihydrobenzofuran-6-yl(methyl)carbamoyl]phenyl]-3-(trifluoromethyl)-6,7-dihydro-4H-pyrano[4,3-c]pyrazol-7-yl]oxy]benzoic acid]
- EC50: < 1 µM

Compound: CN(C(=O)c1cccc(-n2nc(C(F)(F)F)c3c2C(Oc2ccc(C(=O)O)cc2)COC3)c1)c1ccc2c(c1)OCC2 (single isomer, unassigned) [Compound 283, (S) or (R)-4-[[1-[3-[2,3-dihydrobenzofuran-6-yl(methyl)carbamoyl]phenyl]-3-(trifluoromethyl)-6,7-dihydro-4H-pyrano[4,3-c]pyrazol-7-yl]oxy]benzoic acid]
- EC50: 1 to 2 µM

Compound: CN(C(=O)c1cccc(-n2nc(C(F)(F)F)c3c2C(Oc2ccc(C(N)=O)cc2)CCC3)c1)c1ccc2c(c1)OC(F)(F)O2 (single isomer, unassigned) [Compound 284, (S) or (R)-3-[7-(4-Carbamoylphenoxy)-3-(trifluoromethyl)-4,5,6,7-tetrahydroindazol-1-yl]-N-(2,2-difluoro-1,3-benzodioxol-5-yl)-N-methyl-benzamide]
- EC50: < 1 µM

Compound: CN(C(=O)c1cccc(-n2nc(C(F)(F)F)c3c2C(Oc2ccc(C(N)=O)cc2)CCC3)c1)c1ccc2c(c1)OC(F)(F)O2 (single isomer, unassigned) [Compound 285, (R) or (S)-3-[7-(4-Carbamoylphenoxy)-3-(trifluoromethyl)-4,5,6,7-tetrahydroindazol-1-yl]-N-(2,2-difluoro-1,3-benzodioxol-5-yl)-N-methyl-benzamide]
- EC50: < 1 µM
